Measured values taken from patent publication US20090209598A1, “Resorcine Derivatives and Their Use as Pesticides” (priority 2005, published 2009).

Tests used:
Experiment in all cases: whole plant or invertebrate
Type in all cases: in vivo
[1] = system: Boll Weevil (Anthonomus grandis); conditions: eggs sprayed with 20 μl test solution, 3 to 5 days
Experimental: 1. Activity Against Boll Weevil (Anthonomus grandis)
The active compounds were formulated in 1:3 DMSO:water. 10 to 15 eggs were placed into microtiterplates filled with 2% agar-agar in water and 300 ppm formaline. The eggs were sprayed with 20 μl of the test solution, the plates were sealed with pierced foils and kept at 24-26° C. and 75-85% humidity with a day/night cycle for 3 to 5 days. Mortality was assessed on the basis of the remaining unhatched eggs or larvae on the agar surface and/or quantity and depth of the digging channels caused by the hatched larvae. Tests were replicated 2 times.

[2] = system: Tobacco Budworm (Heliothis virescens); conditions: 144 h, eggs sprayed with 10 μl test solution, 6 days
Experimental: 2. Activity Against Tobacco Budworm (Heliothis virescens)
The active compounds were formulated in 1:3 DMSO:water. 15 to 25 eggs were placed into microtiterplates filled with diet. The eggs were sprayed with 10 μl of the test solution, the plates were sealed with pierced foils and kept at 27-29° C. and 75-85% humidity under fluorescent light for 6 days. Mortality was assessed on the basis of the agility and of comparative feeding of the hatched larvae. Tests were replicated 2 times.

[3] = system: Southern Armyworm (Spodoptera Eridania), 2Nd Instar Larvae; conditions: in Phaseolus lunatus, foliar, 96 h, leaf dip, at 4 days, read-out: mortality in comparison with untreated controls
Experimental: 3. Activity Against Southern Armyworm (Spodoptera Eridania), 2Nd Instar Larvae
The active compounds were formulated for testing the activity against insects and arachnids as a 10.000 ppm solution in a mixture of 35% acetone and water, which was diluted with water, if needed.
A Sieva lima bean leaf was dipped in the test solution and allowed to dry. The leaf was then placed in a plastic perforated zip enclosure bag and ten 2nd instar larvae were added. At 4 days, observations are made of mortality and reduced feeding.

[4] = system: diamond back moth (plutella xylostella); conditions: foliar, cabbage leaf disk dip, third instar larvae, after 72 h, read-out: mortality in comparison with untreated controls
Experimental: 6. Activity against diamond back moth (plutella xylostella)
The active compounds were formulated in 50:50 acetone:water and 0.1% (vol/vol) Alkamuls EL 620 surfactant. A 6 cm leaf disk of cabbage leaves was dipped in the test solution for 3 seconds and allowed to air dry in a Petri plate lined with moist filter paper. The leaf disk was inoculated with 10 third instar larvae and kept at […] and 50-60% humidity for 3 days. Mortality was assessed after 72 h of treatment.

Compound: FC(F)(F)c1ccc(OCCCCCCOc2cc(Cl)cc(OCC=C(Cl)Cl)c2)nc1 [I.2, 2-{6-[3-chloro-5-(3,3-dichloro-allyloxy)-phenoxy]-hexyloxy}-5-trifluoromethylpyridine]
- mortality at 2500 ppm [1]: > 75%
- mortality at 2500 ppm [2]: > 75%
- mortality at 300 ppm [3]: ≥ 80%
- mortality at 300 ppm [4]: ≥ 75%
